Measurements as given in US12201691B2, “Core-shell structure, preparation, medicine for external application, tape agent and cosmetic product” (SEKISUI CHEMICAL CO., LTD., priority 2017, dated 2025).
Structures can show the parent of a compound that is named as a salt.

How the values were obtained:
dorsal skin of a rabbit = experiment: Primary irritation index of active ingredients (4% by weight in Plastibase); assay type: in vivo; conditions: active ingredient 4% by weight in Plastibase, Draize scores at 24 and 72 hours
Experimental: Low skin irritation means having a primary irritation index (P.I.I.) of 5 or less. Note that, the primary irritation index can be measured by a method described below.
An active ingredient is added to an ointment base Plastibase (manufactured by Taisho Pharmaceutical Co., Ltd.) such that its content reaches 4% by weight based on the total weight, mixed, and dispersed therein to produce a formulation.
The dorsal skin of a rabbit is shaved with an electric clipper (with an electric shaver as required). Healthy skin at two points on either side of the dorsal mid-line of the dorsal skin, that is, at four points in total, is used as administration sites. Next, the formulation prepared is taken with a spatula and spread evenly on pieces of lint each having a size of 2 cm×2 cm, and the pieces are attached onto the administration sites. The lint pieces are fixed by covering with a non-woven adhesive bandage (manufactured by Nichiban Co., Ltd., MESHPORE, No. 50). Then, the administration sites are altogether wrapped with gauze and then sealed by covering with an adhesive cloth elastic bandage (manufactured by Nichiban Co., Ltd., ELASTPORE, No. 100).
Specifically, individual skin reaction scores (sum of erythema and eschar formation and edema formation) at the administration sites of each rabbit are calculated for each administration specimen at each observation time. […] Specifically, the following equations (1) and (2) are used for the calculation.

[1] = Octanol/water partition coefficient; assay type: physicochemical; conditions: Log10(concentration in octanol phase/concentration in aqueous phase), aqueous buffer of pH 7
Experimental: Note that, in the present invention, the octanol/water partition coefficient is determined based on active ingredient concentration of each phase obtained by adding an active ingredient to a flask containing octanol and an aqueous buffer of pH 7, shaking the flask, and then determining the concentration. Specifically, the partition coefficient can be determined by calculation using an equation: Octanol/water partition coefficient=Log10(concentration in an octanol phase/concentration in an aqueous phase).

| octanol/water partition coefficient [1] | Structure (SMILES) | primary irritation index (P.I.I.) (dorsal skin of a rabbit) | logD [1] |
| --- | --- | --- | --- |
|  | CC12CC3CC(C)(C1)CC(N)(C3)C2 [memantine hydrochloride] | 2.5 |  |
| 0.0 | CCCc1nc(C)c2c(=O)[nH]c(-c3cc(S(=O)(=O)N4CCN(CC)CC4)ccc3OCC)nn12 [vardenafil hydrochloride hydrate] |  |  |
|  | CCN(C)C(=O)Oc1cccc([C@H](C)N(C)C)c1 [rivastigmine] | 0.5 |  |
|  | CC(C(=O)O)c1ccc(CC2CCCC2=O)cc1 (stereo not drawn) [loxoprofen sodium dihydrate] | 0.3 | 0.8 |
|  | NC(=O)CC[C@@H]1NC(=O)[C@H](Cc2ccccc2)NC(=O)[C@H](Cc2ccc(O)cc2)NC(=O)[C@@H](N)CSSC[C@@H](C(=O)N2CCC[C@H]2C(=O)N[C@@H](CCCN=C(N)N)C(=O)NCC(N)=O)NC(=O)[C@H](CC(N)=O)NC1=O [[Arg-8]-Vasopressin] |  | -4.8 |
